Data published in patent US10919885B2, “Compounds and uses thereof” (Yumanity Therapeutics, Inc., priority 2018, dated 2021).

Key:
human SCD1 = human SCD1 (Homo sapiens (Human), UniProt O00767); test: Yeast growth assay, strain expressing human SCD1 as the sole desaturase (reduced growth as surrogate for SCD inhibition); assay type: cell-based; conditions: yeast with OLE1 deleted expressing human SCD1 from a plasmid; growth read as OD600 after 40 h at 30° C.; top drug concentration 33.3 μM
Summary of the method: (§1)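 Human SCD1 or SCD5 expressed from a plasmid in OLE1-deleted yeast as the sole desaturase. Cells washed free of Tween and fatty acids, grown with compound in SD-Ura glucose medium 40 h at 30 °C; growth measured as OD600, reduced growth taken as SCD inhibition.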

human SCD5 = human SCD5 (Homo sapiens (Human), UniProt Q86SK9); test: Yeast growth assay, strain expressing human SCD5 as the sole desaturase (reduced growth as surrogate for SCD inhibition); assay type: cell-based; conditions: yeast with OLE1 deleted expressing human SCD5 from a plasmid; growth read as OD600 after 40 h at 30° C.; top drug concentration 33.3 μM
Sequence of human SCD5 (Q86SK9 whole entry): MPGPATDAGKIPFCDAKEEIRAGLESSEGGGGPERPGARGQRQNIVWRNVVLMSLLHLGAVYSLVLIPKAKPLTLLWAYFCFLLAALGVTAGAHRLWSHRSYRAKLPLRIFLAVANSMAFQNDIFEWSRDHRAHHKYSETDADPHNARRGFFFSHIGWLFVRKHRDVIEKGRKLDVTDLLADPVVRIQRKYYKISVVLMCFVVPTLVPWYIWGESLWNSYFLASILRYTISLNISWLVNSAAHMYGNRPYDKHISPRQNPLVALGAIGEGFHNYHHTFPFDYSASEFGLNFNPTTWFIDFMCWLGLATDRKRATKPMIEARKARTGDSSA
Summary of the method: as §1

Sequence of human SCD1 (O00767 whole entry): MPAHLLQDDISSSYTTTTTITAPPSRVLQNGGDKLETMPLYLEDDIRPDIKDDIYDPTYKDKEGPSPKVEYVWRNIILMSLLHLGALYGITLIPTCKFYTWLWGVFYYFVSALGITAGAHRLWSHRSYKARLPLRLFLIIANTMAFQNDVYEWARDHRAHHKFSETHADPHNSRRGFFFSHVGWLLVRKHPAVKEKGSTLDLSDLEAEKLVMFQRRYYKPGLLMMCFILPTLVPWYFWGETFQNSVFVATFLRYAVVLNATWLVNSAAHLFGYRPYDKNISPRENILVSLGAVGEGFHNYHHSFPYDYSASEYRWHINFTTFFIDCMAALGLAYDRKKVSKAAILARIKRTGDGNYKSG

Row | SMILES | IC50 (human SCD1) | IC50 (human SCD5)
1 | O=C(c1cc(-c2ccc3c(c2)OCO3)on1)N1C[C@H](O)C[C@H]1c1ccccc1 [Compound 422] | > 45 µM | > 45 µM
2 | CC(C)(C)OC(=O)N1CC2(C1)CN(C(=O)c1cc(-c3ccccc3)on1)C2 [Compound 344] | > 45 µM | > 45 µM
3 | CC1(C(=O)Nc2ccccc2)CN(C(=O)c2cc(-c3ccccc3)on2)C1 [Compound 238] | > 45 µM | > 45 µM
4 | O=C(Nc1cnn(Cc2ccc(C(F)(F)F)cc2)c1)c1cc(-c2ccco2)on1 [Compound 16] | > 45 µM | > 45 µM
5 | O=C(c1cc(-c2ccc3c(c2)OCO3)on1)N1Cc2ccccc2C1 [Compound 328] | > 45 µM | > 45 µM
6 | N#Cc1ccc2c(C(=O)N3CCC[C@H]3c3ccccc3)noc2c1 [Compound 456] | > 45 µM | > 45 µM
7 | Cc1c(NC(=O)c2cc(-c3ccco3)on2)cnn1Cc1ccc(Cl)c(Cl)c1 [Compound 21] | > 45 µM | > 45 µM
8 | O=C(c1cc(-c2ccc3c(c2)OCO3)on1)N1CCn2ccnc2C1 [Compound 269] | > 45 µM | > 45 µM
9 | Cc1nn(Cc2ccc(Cl)c(Cl)c2)cc1NC(=O)c1cc(-c2ccco2)on1 [Compound 17, N-(1-(3,4-dichlorobenzyl)-3-methyl-1H-pyrazol-4-yl)-5-(furan-2-yl)isoxazole-3-carboxamide] | > 45 µM | 4.87 µM
10 | O=C(c1cc(-c2ccccn2)on1)N(Cc1ccc(F)c(F)c1)c1cnn(Cc2ccc(F)c(F)c2)c1 [Compound 62, N-(3,4-difluorobenzyl)-N-(1-(3,4-difluorobenzyl)-1H-pyrazol-4-yl)-5-(pyridin-2-yl)isoxazole-3-carboxamide] | > 45 µM | 33.1 µM
11 | O=C(c1cc(-c2ccc3c(c2)OCO3)on1)N1CCCC1c1ncccn1 (centres unmarked) [Compound 431] | > 45 µM | > 45 µM
12 | NC(=O)c1cc(C(=O)Nc2cnn(Cc3ccccc3)c2)no1 [Compound 48] | > 45 µM | > 45 µM
13 | C[S+]([O-])CCC(c1ccccc1)n1cc(NC(=O)c2cc(-c3ccccc3)on2)cn1 (centres unmarked) [Compound 71] | > 45 µM | > 45 µM
14 | CC(C)c1cc(C(=O)Nc2cnn(CC34CCC(CC3)CC4)c2)no1 [Compound 167] | > 45 µM | > 45 µM
15 | Cc1nn(C)c(C)c1NC(=O)c1cc(-c2ccco2)on1 [Compound 1] | > 45 µM | > 45 µM
16 | O=C(c1cc(-c2ccccc2)on1)N1CCC(c2cccnc2)CC1 [Compound 322] | > 45 µM | > 45 µM
17 | O=C(Nc1cnn(Cc2cccc(F)c2)c1)c1cc(-c2ccno2)on1 [Compound 168] | > 45 µM | > 45 µM
18 | O=C(Nc1cnn(Cc2ccc(Cl)cc2)c1)c1cc(-c2ccco2)on1 [Compound 15] | > 45 µM | > 45 µM
19 | O=C(Nc1cnn(Cc2cccc(F)c2)c1)c1cc(-c2ccns2)on1 [Compound 81, N-(1-(3-fluorobenzyl)-1H-pyrazol-4-yl)-5-(isothiazol-5-yl)isoxazole-3-carboxamide] | 0.232 µM | 1.6 µM
20 | N#Cc1ccc(-c2cc(C(=O)Nc3cnn(Cc4cc(F)ccc4C(F)(F)F)c3)no2)nc1 [Compound 99] | > 45 µM | > 45 µM
21 | O=C(Nc1cnn(Cc2ccccc2)n1)c1cc(-c2ccccc2)on1 [Compound 52] | > 45 µM | > 45 µM
22 | Cc1nn(Cc2ccc(Cl)c(Cl)c2)c(C)c1NC(=O)c1cc(-c2ccco2)on1 [Compound 3, N-(1-(3,4-dichlorobenzyl)-3,5-dimethyl-1H-pyrazol-4-yl)-5-(furan-2-yl)isoxazole-3-carboxamide] | > 45 µM | 7.15 µM
23 | O=C(Nc1cnn(Cc2cnccc2C(F)(F)F)c1)c1cc(-c2ccncc2)on1 [Compound 202] | > 45 µM | > 45 µM
24 | N#Cc1nn(Cc2ccccc2)cc1NC(=O)c1cc(-c2ccccc2)on1 [Compound 68] | > 45 µM | > 45 µM
25 | Cn1ncc2ccc(-c3cc(C(=O)N4CC(c5ccccc5)C4)no3)cc21 [Compound 232, (5-(1-methyl-1H-indazol-6-yl)isoxazol-3-yl)(3-phenylazetidin-1-yl)methanone] | > 45 µM | 1.63 µM

The next lines start with the values.

Row | IC50 (human SCD1) | IC50 (human SCD5) | SMILES
26 | 0.99 µM | 7.89 µM | Cc1ncc(-c2cc(C(=O)Nc3cnn(Cc4cccc(F)c4)c3)no2)o1 [Compound 67, N-(1-(3-fluorobenzyl)-1H-pyrazol-4-yl)-5-(2-methyloxazol-5-yl)isoxazole-3-carboxamide]
27 | > 45 µM | > 45 µM | O=C(c1cc(-c2ccccc2)on1)N1CC(Nc2ccccc2)C1 [Compound 214]
28 | 15 µM | 2.89 µM | COc1ccc(C2CCCN2C(=O)c2cc(-c3ccc4nc(N(C)C)oc4c3)on2)cc1 (centres unmarked) [Compound 399]
29 | 43.5 µM | > 45 µM | COc1ccc(C2CCCN2C(=O)c2cc(-c3ccc(OC)c(F)c3)on2)cc1 (centres unmarked) [Compound 382]
30 | 0.28 µM | 1.4 µM | O=C(c1cc(-c2ccco2)on1)N1CC(Oc2ccccc2)C1 [Compound 206, [5-(2-furyl)isoxazol-3-yl]-(3-phenoxyazetidin-1-yl)methanone]
31 | 23 µM | > 45 µM | O=C(c1cc(-c2ccncc2)on1)N1CCC[C@H]1c1ccccc1 [Compound 409]
32 | 19 µM | 5.58 µM | O=C(c1cc(-c2ccccc2)on1)N1CCN(c2cc(F)ccc2Cl)CC1 [Compound 297, (4-(2-chloro-5-fluorophenyl)piperazin-1-yl)(5-phenylisoxazol-3-yl)methanone]
33 | 25.5 µM | > 45 µM | O=C(Nc1cnn(CC2CCOC2)c1)c1cc(-c2ccccc2)on1 (centres unmarked) [Compound 50]
34 | 30 µM | > 45 µM | O=C(c1cc(CC2CC2)on1)N1CCCC1c1ccccc1 (centres unmarked) [Compound 384]
35 | 0.737 µM | 6.97 µM | O=C(Nc1cnn(Cc2cccc(F)c2)c1)c1cc(C2COC2)on1 [Compound 139, N-(1-(3-fluorobenzyl)-1H-pyrazol-4-yl)-5-(oxetan-3-yl)isoxazole-3-carboxamide]
36 | 0.66 µM | 7.17 µM | O=C(c1cc(-c2ccncc2)on1)N1CC(c2ccccc2)C1 [Compound 229, (3-phenylazetidin-1-yl)(5-(pyridin-4-yl)isoxazol-3-yl)methanone, trifluoroacetic acid]
37 | 0.066 µM | 1 µM | CCc1cc(C(=O)Nc2cnn(Cc3cccc(F)c3)c2)no1 [Compound 104, 5-ethyl-N-(1-(3-fluorobenzyl)-1H-pyrazol-4-yl)isoxazole-3-carboxamide]
38 | 30 µM | > 45 µM | COc1cc(C2CCCN2C(=O)c2cc(-c3ccc4c(c3)OCO4)on2)on1 (centres unmarked) [Compound 411]
39 | 0.866 µM | 1.92 µM | O=C(c1cc(-c2ccc3c(c2)OCO3)on1)N1CC(c2cccc(F)c2)C1 [Compound 239, (5-(benzo[d][1,3]dioxol-5-yl)isoxazol-3-yl)(3-(3-fluorophenyl)azetidin-1-yl)methanone]
40 | 0.11 µM | 2 µM | O=C(Nc1cnn(Cc2ccccc2)c1)c1cc(C2CC2)on1 [Compound 119, N-(1-benzyl-1H-pyrazol-4-yl)-5-cyclopropylisoxazole-3-carboxamide]
